The source made the active and inactive calls.
Experiments:
[1] = molecular target: T1, Tyrosine-protein phosphatase non-receptor type 11 (Homo sapiens, UniProt Q06124); experiment: SHP2 phosphatase inhibition, dose response, selectivity assay for STEP inhibitor project, biochemical (AID 602367); assay type: functional; conditions: read-out: IC50_Mean
T1 sequence (Q06124 whole entry): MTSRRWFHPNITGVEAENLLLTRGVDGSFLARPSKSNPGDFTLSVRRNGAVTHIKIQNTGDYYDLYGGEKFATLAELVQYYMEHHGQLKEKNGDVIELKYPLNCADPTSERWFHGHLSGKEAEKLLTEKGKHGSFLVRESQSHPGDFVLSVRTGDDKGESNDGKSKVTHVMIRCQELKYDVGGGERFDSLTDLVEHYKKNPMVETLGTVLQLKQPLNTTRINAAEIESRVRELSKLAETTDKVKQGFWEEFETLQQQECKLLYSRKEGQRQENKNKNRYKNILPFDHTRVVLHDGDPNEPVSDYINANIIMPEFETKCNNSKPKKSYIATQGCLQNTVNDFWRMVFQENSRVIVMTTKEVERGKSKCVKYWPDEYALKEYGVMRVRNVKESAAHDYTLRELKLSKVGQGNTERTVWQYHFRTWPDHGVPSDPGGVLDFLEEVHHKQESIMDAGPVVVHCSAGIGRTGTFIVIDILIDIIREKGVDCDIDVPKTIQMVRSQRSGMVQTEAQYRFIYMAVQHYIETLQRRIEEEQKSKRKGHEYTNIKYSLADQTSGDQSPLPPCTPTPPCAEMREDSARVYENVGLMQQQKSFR

[2] = molecular target: T2, Tyrosine-protein phosphatase non-receptor type 5 (Homo sapiens, UniProt P54829); experiment: STEP phosphatase inhibitors, confirmation, biochemical, fluorescence intensity, uHTS hits (AID 602372); assay type: functional; conditions: read-out: IC50_Mean
T2 sequence (P54829 whole entry): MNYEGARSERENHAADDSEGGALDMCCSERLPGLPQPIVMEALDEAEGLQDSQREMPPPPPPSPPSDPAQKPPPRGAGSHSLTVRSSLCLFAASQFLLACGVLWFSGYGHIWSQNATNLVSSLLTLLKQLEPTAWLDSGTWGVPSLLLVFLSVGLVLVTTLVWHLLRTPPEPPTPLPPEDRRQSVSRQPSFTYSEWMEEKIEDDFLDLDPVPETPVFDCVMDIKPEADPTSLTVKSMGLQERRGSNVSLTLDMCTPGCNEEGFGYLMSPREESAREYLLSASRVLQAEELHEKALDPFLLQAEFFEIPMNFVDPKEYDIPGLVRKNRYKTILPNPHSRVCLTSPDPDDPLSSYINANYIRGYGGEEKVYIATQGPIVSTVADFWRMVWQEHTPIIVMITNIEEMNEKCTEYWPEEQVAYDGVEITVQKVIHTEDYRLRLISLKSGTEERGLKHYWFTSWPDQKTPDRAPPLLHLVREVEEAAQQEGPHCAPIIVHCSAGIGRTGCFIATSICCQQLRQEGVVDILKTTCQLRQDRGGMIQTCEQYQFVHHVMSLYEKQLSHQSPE

[3] = molecular target: Dual specificity protein phosphatase 3 (Homo sapiens, UniProt P51452); experiment: VHR phosphatase inhibition, dose response, selectivity assay for STEP inhibitor project, biochemical (AID 602374); assay type: functional; conditions: read-out: IC50_Mean
[4] = molecular target: Glucose-6-phosphate 1-dehydrogenase (Homo sapiens, UniProt P11413); experiment: human G6PD enzyme inhibitors, dose response, selectivity assay for P. falciparum G6PD inhibitor project, biochemical, fluorescence (AID 504792); assay type: functional
P388/ADR = experiment: cells; assay type: functional; conditions: Mus musculus
Melanocortin receptor 4 = Melanocortin receptor 4 (Homo sapiens, UniProt P32245); assay type: functional, cell-based;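 further: Cell-based assay with luminescence read-out, confirmatory dose-response testing for agonist activity of biased ligands at MC4R; human U2OS cells with tagged receptor and beta-arrestin; potency of agonists that increase receptor coupling to beta-arrestin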
[5] = molecular target: T3, Zinc finger protein mex-5 (Caenorhabditis elegans, UniProt Q9XUB2); experiment: MEX-5/TCR-2 RNA interaction inhibitors, dose response, biochemical, C. elegans, fluorescence polarization (AID 1960)
T3 sequence (Q9XUB2 whole entry): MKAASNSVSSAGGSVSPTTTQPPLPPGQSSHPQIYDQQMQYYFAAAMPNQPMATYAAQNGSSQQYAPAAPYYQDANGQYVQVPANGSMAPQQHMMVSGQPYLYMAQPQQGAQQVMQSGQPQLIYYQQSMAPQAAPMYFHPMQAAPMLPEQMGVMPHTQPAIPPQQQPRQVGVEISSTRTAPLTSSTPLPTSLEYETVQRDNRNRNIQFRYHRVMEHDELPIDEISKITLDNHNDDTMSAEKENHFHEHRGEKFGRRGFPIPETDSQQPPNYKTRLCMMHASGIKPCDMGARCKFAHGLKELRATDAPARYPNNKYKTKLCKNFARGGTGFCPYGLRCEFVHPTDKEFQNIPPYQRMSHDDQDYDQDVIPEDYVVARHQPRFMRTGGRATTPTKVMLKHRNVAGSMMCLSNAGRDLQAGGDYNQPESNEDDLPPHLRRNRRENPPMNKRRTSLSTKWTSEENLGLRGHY

Cysteine protease ATG4B = molecular target: T4, Cysteine protease ATG4B (Homo sapiens, UniProt Q9Y4P1); assay type: functional;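 further: Fluorescence-based dose-response confirmation assay measuring inhibition of ATG4B activity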
T4 sequence (Q9Y4P1 whole entry): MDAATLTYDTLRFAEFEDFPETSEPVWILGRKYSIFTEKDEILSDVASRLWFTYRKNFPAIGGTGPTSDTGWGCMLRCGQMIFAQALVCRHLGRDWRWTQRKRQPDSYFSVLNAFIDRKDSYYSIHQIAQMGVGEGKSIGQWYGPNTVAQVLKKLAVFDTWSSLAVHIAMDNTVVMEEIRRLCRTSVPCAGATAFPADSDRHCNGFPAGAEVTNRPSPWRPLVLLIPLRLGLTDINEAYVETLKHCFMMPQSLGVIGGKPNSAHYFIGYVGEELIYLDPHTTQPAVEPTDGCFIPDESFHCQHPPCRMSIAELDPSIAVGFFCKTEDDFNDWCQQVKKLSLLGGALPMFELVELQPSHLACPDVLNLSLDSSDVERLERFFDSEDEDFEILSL

[6] = molecular target: T5, Calpain-2 catalytic subunit (Sus scrofa, UniProt P43367); experiment: pig calpain II inhibitor potency, dose response, biochemical, fluorogenic peptide substrate (AID 1420); assay type: functional
T5 sequence (P43367 whole entry): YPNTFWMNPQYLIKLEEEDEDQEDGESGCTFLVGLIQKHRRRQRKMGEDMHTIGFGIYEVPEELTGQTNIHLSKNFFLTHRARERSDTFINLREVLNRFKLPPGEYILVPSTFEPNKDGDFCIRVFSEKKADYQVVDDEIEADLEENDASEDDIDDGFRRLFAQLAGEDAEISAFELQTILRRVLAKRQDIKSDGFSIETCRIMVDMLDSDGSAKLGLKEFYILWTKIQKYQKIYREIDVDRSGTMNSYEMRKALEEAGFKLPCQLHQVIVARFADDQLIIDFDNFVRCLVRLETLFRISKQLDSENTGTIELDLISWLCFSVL

[7] = molecular target: T6, Histone-lysine N-methyltransferase NSD2 (Homo sapiens, UniProt O96028); assay type: biochemical
T6 sequence (O96028 whole entry): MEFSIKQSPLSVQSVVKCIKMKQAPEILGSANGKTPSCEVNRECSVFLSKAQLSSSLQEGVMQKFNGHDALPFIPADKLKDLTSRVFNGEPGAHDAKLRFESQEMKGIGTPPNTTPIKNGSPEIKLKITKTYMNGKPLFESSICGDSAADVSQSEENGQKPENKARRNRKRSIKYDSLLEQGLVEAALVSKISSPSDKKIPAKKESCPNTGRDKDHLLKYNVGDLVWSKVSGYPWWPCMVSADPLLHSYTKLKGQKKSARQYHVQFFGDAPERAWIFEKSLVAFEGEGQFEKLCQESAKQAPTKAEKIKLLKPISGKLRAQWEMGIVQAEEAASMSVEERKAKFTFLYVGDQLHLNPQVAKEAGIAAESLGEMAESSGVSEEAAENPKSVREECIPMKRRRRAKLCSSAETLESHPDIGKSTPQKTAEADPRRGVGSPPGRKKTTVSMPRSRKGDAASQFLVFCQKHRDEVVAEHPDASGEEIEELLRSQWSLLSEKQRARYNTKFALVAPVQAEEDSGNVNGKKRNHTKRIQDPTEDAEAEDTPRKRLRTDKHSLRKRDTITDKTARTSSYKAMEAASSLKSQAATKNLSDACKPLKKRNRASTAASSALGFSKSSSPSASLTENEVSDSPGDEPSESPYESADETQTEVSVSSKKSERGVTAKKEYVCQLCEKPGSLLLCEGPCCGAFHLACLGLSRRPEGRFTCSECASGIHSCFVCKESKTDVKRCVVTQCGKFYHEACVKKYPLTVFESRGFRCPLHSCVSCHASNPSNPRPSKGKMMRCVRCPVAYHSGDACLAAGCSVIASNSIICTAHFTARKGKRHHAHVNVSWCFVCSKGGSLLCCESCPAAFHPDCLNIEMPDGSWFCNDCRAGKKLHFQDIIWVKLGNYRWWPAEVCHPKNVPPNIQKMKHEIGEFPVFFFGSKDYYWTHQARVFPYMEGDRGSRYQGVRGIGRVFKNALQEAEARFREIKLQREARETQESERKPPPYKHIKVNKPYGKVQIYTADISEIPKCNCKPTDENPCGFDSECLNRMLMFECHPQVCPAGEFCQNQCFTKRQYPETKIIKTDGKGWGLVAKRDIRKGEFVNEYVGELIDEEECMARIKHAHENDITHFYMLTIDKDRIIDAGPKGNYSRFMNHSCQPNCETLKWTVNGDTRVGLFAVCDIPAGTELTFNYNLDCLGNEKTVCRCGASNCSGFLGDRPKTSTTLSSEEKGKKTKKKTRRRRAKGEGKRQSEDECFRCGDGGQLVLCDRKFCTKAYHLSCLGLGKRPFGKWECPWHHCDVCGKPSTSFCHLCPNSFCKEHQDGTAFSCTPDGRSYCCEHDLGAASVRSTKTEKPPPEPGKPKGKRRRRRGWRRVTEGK

[8] = molecular target: T7, RNA-binding protein pos-1 (Caenorhabditis elegans, UniProt G5EF15); experiment: inhibitors of POS-1/mex-3 RNA binding, dose response, biochemical, fluorescence polarization (AID 1964);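 further: purified POS-1 fused to maltose binding protein made in E. coli; potency of compounds blocking POS-1 binding to fluorescent RNA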
T7 sequence (G5EF15 whole entry): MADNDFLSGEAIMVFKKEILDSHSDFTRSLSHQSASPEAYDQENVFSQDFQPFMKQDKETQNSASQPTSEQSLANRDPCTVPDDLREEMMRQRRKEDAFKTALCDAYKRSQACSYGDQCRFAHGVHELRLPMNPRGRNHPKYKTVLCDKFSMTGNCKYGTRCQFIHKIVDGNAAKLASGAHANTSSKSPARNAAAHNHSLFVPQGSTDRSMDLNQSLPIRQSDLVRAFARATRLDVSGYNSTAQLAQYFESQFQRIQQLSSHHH

Phospholipase A2 = Phospholipase A2 (Homo sapiens, UniProt P04054); assay type: functional;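 further: confirmatory dose-response counterscreen on phospholipase A2, testing hits that came from an ultra-high-throughput screen for ATG4B inhibitors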
[9] = molecular target: T8, Sentrin-specific protease 1 (Homo sapiens, UniProt Q9P0U3); experiment: Dose response confirmation of small molecule inhibitors of the catalytic domain of the SUMO protease, SENP1 in a FRET assay.; assay type: functional; conditions: read-out: IC50_Mean
T8 sequence (Q9P0U3 whole entry): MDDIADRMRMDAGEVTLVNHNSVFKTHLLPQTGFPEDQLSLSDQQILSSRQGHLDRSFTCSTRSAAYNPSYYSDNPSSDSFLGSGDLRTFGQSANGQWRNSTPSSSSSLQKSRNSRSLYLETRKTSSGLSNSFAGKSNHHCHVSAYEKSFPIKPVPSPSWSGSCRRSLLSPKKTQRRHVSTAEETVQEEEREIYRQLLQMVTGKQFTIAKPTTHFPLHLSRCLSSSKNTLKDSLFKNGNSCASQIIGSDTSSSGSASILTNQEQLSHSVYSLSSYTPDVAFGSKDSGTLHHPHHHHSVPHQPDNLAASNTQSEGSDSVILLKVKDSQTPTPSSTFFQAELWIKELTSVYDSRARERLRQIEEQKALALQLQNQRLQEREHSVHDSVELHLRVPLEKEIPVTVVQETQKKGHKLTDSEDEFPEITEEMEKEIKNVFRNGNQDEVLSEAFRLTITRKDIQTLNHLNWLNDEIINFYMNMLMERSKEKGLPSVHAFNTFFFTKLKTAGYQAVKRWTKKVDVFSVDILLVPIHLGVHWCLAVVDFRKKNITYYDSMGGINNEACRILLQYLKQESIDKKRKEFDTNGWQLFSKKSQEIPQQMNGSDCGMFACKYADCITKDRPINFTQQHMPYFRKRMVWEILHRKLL

[10] = molecular target: T9, Low molecular weight phosphotyrosine protein phosphatase (Homo sapiens, UniProt P24666); assay type: functional; conditions: read-out: IC50_Mean;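 further: Dose-response confirmation assay measuring inhibition of LMPTP enzyme activity by fluorescence intensity read-out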
T9 sequence (P24666 whole entry): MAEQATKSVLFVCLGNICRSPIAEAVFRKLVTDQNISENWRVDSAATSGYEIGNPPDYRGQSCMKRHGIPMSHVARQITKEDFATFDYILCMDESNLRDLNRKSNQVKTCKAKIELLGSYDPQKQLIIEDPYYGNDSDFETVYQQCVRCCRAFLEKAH

Sequence of Melanocortin receptor 4 (P32245 whole entry): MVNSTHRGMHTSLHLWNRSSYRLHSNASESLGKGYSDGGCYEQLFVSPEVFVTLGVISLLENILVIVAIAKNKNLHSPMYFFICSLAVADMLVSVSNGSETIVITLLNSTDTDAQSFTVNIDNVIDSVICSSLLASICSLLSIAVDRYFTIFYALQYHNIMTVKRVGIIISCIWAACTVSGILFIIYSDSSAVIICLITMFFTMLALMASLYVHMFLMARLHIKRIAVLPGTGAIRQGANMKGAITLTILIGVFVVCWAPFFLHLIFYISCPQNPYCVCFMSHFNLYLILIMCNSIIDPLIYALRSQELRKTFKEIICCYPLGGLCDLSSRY
Sequence of Dual specificity protein phosphatase 3 (P51452 whole entry): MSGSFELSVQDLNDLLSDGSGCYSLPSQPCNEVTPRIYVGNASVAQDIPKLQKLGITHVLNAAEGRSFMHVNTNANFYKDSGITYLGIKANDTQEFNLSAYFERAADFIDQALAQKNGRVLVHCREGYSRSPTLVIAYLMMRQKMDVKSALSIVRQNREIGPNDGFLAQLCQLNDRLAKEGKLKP
Sequence of Phospholipase A2 (P04054 whole entry, the tested form may be a part): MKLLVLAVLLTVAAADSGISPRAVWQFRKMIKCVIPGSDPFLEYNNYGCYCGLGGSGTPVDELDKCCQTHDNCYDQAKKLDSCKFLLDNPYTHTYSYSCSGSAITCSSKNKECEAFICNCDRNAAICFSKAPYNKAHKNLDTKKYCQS
Sequence of Glucose-6-phosphate 1-dehydrogenase (P11413 whole entry): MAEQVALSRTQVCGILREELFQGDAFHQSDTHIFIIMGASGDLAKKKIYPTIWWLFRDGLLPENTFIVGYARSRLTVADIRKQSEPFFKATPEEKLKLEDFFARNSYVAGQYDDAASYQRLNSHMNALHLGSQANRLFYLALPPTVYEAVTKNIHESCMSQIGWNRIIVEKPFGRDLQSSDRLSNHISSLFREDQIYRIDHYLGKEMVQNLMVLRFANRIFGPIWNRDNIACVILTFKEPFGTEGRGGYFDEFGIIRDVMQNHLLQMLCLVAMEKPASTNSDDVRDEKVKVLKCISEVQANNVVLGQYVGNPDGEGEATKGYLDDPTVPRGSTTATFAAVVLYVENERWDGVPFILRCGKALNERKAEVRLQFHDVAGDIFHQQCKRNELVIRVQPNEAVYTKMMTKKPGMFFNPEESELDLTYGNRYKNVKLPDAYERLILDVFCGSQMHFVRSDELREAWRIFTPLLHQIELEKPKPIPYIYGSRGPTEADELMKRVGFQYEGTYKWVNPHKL

Cn1c(=O)[nH]c(=O)c2c1nc(SCCN1CCCCC1)n2CCCc1ccccc1
IC50 [1]: 0.599 µM (active) | IC50 [2]: 34.9 µM (inactive) | IC50 [3]: 0.57 µM (active) | IC50 [4]: > 80 µM (inactive)

O=C(NCCCn1ccnc1)C(Cc1ccccc1)N1C(=O)c2ccccc2C1=O (centres undefined)
IC50 [1]: 11.8 µM (active) | IC50 [2]: 36.1 µM (inactive) | IC50 [3]: 3.08 µM (active)

COc1cccc2c1C(=O)c1c(O)c3c(c(O)c1C2=O)C[C@@](O)(C(C)=O)C[C@@H]3OC1CC(O)C(O)C(C)O1 (some centres undefined)
GI50 (P388/ADR): 0.293 µM (active)

COc1ccc2c(c1)CCc1c(C(=O)Nc3ccn(Cc4ccc(C)cc4)n3)noc1-2
EC50 (Melanocortin receptor 4): > 89.2 µM (inactive)

O=C(CCN1C(=O)/C(=C/C=C/c2ccccc2)SC1=S)Nc1ccccn1
EC50 (Melanocortin receptor 4): > 89.2 µM (inactive)

Cc1ccccc1NC1=NC(=O)/C(=C/c2cccn2-c2cccc(C(=O)O)c2)S1
EC50 [5]: 70 µM (active) | IC50 (Cysteine protease ATG4B): 10.2 µM (active) | IC50 [6]: 1.09 µM (not active) | AC50 [7]: > 20 µM (inactive) | EC50 [8]: > 300 µM (not active) | IC50 (Phospholipase A2): 8.6 µM (active)

COCCNC(=O)c1cccc2c1C(=O)c1ccc(N3CCOCC3)cc1S2(=O)=O
IC50 [9]: 14.1 µM (active)

CSc1sc(-c2nnc(S)n2C)c2c1C=CCC2
IC50 [10]: 38.2 µM (inactive)

Cc1ccc(C(=O)NCCNc2nc3cc(C)c(C)cc3cc2C)cc1
EC50 (Melanocortin receptor 4): > 89.2 µM (inactive)

From ChEMBL document CHEMBL1201862, “PubChem BioAssay data set” (2004)
